Measured values: ChEMBL document CHEMBL4840343, “Fragment-based lead discovery of indazole-based compounds as AXL kinase inhibitors” (Bioorg Med Chem, 2021)
≈ marks a conversion by molar mass, not a printed value. Calls of active or inactive are those of the source. The rule behind the calls is not given here.

Key:
[1] = molecular target: T1, Tyrosine-protein kinase receptor UFO (Homo sapiens, UniProt P30530); assay: Displacement of K5 tracer from Axl (unknown origin) expressed in human HEK293 cells cotransfected with NanoLuc measured after 2 hrs by NanoBRET assay; type: cell-based
T1 sequence (P30530 whole entry): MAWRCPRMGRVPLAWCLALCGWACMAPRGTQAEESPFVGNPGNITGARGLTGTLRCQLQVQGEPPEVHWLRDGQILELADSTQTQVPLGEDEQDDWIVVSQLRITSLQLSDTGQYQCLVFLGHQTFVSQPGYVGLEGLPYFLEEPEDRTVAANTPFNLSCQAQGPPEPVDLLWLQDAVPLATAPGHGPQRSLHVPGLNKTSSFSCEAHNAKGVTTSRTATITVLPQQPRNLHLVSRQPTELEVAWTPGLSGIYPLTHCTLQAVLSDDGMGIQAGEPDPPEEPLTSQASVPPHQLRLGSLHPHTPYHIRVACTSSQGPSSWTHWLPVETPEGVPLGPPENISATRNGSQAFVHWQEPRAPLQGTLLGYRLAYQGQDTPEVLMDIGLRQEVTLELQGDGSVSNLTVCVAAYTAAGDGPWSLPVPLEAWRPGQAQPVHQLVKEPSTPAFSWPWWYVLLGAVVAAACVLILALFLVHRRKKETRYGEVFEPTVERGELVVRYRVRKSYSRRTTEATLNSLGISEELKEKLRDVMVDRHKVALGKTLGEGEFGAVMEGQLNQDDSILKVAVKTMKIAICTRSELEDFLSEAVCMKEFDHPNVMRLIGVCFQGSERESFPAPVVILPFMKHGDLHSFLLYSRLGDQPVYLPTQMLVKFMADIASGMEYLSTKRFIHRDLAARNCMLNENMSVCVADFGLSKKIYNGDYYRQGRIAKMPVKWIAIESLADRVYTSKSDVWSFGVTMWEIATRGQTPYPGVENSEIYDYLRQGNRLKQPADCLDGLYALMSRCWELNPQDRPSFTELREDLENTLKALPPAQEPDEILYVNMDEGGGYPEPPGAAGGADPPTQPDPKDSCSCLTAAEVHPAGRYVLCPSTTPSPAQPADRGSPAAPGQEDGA

[2] = molecular target: T1, Tyrosine-protein kinase receptor UFO; assay: Inhibition of Axl (unknown origin) using 5'FAM labeled KKKKEEIYFFF-NH2 peptide as substrate incubated for 1.5 hrs
SK-OV-3 = assay: Antiproliferative activity against human SK-OV-3 cells as reduction in cell growth measured after 72 hrs by Celltiter-Glo luminescent assay; type: functional
[3] = Permeability across apical to basolateral side in human Caco-2 cells; type: ADME, cell-based; conditions: read-out: permeability
[4] = Intrinsic clearance in human liver microsomes; type: ADME, Microsome; conditions: read-out: CLH
[5] = Intrinsic clearance in mouse liver microsomes; type: ADME, Microsome; conditions: read-out: CLH
[6] = Permeability across basolateral to apical side in human Caco-2 cells; type: ADME, cell-based; conditions: read-out: permeability
[7] = molecular target: Tyrosine-protein kinase receptor UFO (Homo sapiens) (UniProt P30530); assay: Inhibition of Axl in human SK-OV-3 cells assessed as reduction in phosphorylated Axl level measured after 1 hr by Western blot analysis; type: cell-based; conditions: dose 1-10 µM
[8] = Efflux ratio of permeability in human Caco-2 cells; type: ADME, cell-based
[9] = molecular target: Tyrosine-protein kinase receptor UFO (Homo sapiens) (UniProt P30530); assay: Inhibition of Axl in human SK-OV-3 cells assessed as reduction in phosphorylated ERK1/2 level at 1 to 10 uM measured after 1 hr by Western blot analysis; type: cell-based; conditions: dose 1-10 µM
[10] = Thermodynamic solubility of compound at pH 7.4; type: physicochemical; conditions: buffer, read-out: Therm_solubility
[11] = Distribution coefficient, logD of compound at pH 7.4; type: physicochemical; conditions: octanol/water

Row | Compound | IC50 [2] [µM] | other results
1 | N#Cc1ccccc1-n1cc(-c2n[nH]c3cc(Cl)c(N[C@@H]4CCNC4)cc23)cn1 | 3.2 | IC50 [1]: 3.54 µM; GI50 (SK-OV-3): 2.78 µM
2 | Cn1cc(-c2n[nH]c3ccc(N[C@H]4CCNC4)cc23)cn1 | 239 | IC50 [1]: > 50 µM
3 | Nc1ccc2c(Br)n[nH]c2c1 | > 770 | 
4 | Cn1cc(-c2n[nH]c3cc(Cl)c(Br)cc23)cn1 | 0.85 | 
5 | Cn1cc(-c2n[nH]c3ccc(NC4CCNC4)cc23)cn1 (stereo not given) | 132 | 
6 | Cn1cc(-c2n[nH]c3ccc(Nc4ccccc4)cc23)cn1 | 0.58 | 
7 | Nc1cccc2[nH]nc(Br)c12 | 486 | 
8 | Nc1cccc(-c2cccnc2)c1 | 363 | 
9 | Cn1cc(-c2n[nH]c3ccc(N)cc23)cn1 | 8.91 | 
10 | Clc1ncnc2ccsc12 | 302 | 
11 | CN1CC[C@@H](Nc2cc3c(-c4cnn(C)c4)n[nH]c3cc2Cl)C1 | 74 | IC50 [1]: 8.96 µM
12 | Cn1cc(-c2n[nH]c3cc(-c4ccccc4)ccc23)cn1 | 12.3 | 
13 | Clc1ccnc2[nH]ccc12 | 113 | 
14 | Cn1cc(-c2n[nH]c3ccc(N[C@@H]4CCNC4)cc23)cn1 | 37 | IC50 [1]: 20.7 µM
15 | Cn1cc(-c2n[nH]c3cc(Cl)c(N[C@@H]4CCNC4)cc23)cn1 | 19 | Papp A→B [3]: 0.39 ×10⁻⁶ cm/s; IC50 [1]: 3.13 µM; microsomal CLint [4]: < 12 µL/min/mg; microsomal CLint [5]: 9.38 µL/min/mg; Papp B→A [6]: 8.71 ×10⁻⁶ cm/s; GI50 (SK-OV-3): 8.62 µM; inhibition [7]: Dose-Dependent Effect; efflux ratio [8]: 22.6; inhibition [9]: Active; solubility thermodynamic [10]: 297 µg/mL (≈ 938 µM); logD [11]: 0.32
16 | Cn1cc(-c2n[nH]c3ccc(-c4ccccc4)cc23)cn1 | 0.62 | 
17 | Cn1cc(-c2nn(C)c3cc(N)ccc23)cn1 | > 384 | 
18 | N#Cc1cccc(-n2cc(-c3n[nH]c4cc(Cl)c(N[C@@H]5CCNC5)cc34)cn2)c1 | 2.3 | IC50 [1]: 2.02 µM; GI50 (SK-OV-3): 0.496 µM
19 | Clc1cc2[nH]nc(-c3cnn(-c4ccccc4)c3)c2cc1N[C@@H]1CCNC1 | 1.7 | IC50 [1]: 0.668 µM
20 | CNC1CCN(c2ccc3[nH]nc(-c4cnn(C)c4)c3c2)C1 (stereo not given) | 432 | 
21 | FC(F)(F)c1cccc2[nH]ncc12 | 184 | 
22 | CN1CCC(CNc2ccc3[nH]nc(-c4cnn(C)c4)c3c2)CC1 | 1850 | 
23 | Cn1cc(-c2n[nH]c3cc(Nc4ccccc4)ccc23)cn1 | 219 | 
24 | CSc1cc(-c2ccc(F)cc2)n[nH]1 | 331 | 
25 | CN1CCC(Nc2ccc3[nH]nc(-c4cnn(C)c4)c3c2)CC1 | 207 | 
26 | Brc1cnn2cccnc12 | 330 | 
